In patent US8551984B2, “Aminopyrimidines as SYK inhibitors” (Merck Sharp & Dohme Corp., priority 2009, dated 2013):

biological target: rhSYK (Homo sapiens, UniProt P43405); conditions: read-out: rhSYK Activity; Table 117

Row | IC50 [µM] | SMILES
1 | < 0.1 | Cc1cc(Nc2nccc(C(F)(F)F)n2)cc(-c2cnc(C3(O)CCC(CC(N)=O)CC3)s2)c1 (centres unmarked) [Example 117-9]
2 | < 0.1 | Cc1cc(Nc2nccc(C(F)(F)F)n2)cc(-c2cnc(C3(O)CCC(CC(N)=O)CC3)s2)c1 (centres unmarked) [Example 117-10]

same assay, conditions: read-out: rhSYK Activity; Table 119; two symbols in a cell = one per listed form

Row | IC50 [µM] | SMILES
3 | < 0.1 | Cc1cc(Nc2nccc(C(C)C)n2)cc(-c2cnc(C3(O)CCC(C(N)=O)C(C)C3)s2)c1 (centres unmarked) [Example 119-11]
4 | < 0.1 | COc1ccnc(Nc2cc(C)cc(-c3cnc(C4(O)CCC(C(N)=O)C(C)(C)C4)s3)c2)n1 (centres unmarked) [Example 119-13]
5 | < 0.1 | Cc1cc(Nc2nccc(C(C)O)n2)cc(-c2cnc(C3(O)CCC(C(N)=O)C(C)(C)C3)s2)c1 (centres unmarked) [Example 119-121]
6 | < 0.1 | Cc1cc(Nc2nccc(C(C)F)n2)cc(-c2cnc(C3(O)CCC(C(N)=O)C(C)(C)C3)s2)c1 (centres unmarked) [Example 119-123]
7 | < 0.1 | Cc1cc(Nc2nccc(OC(C)C)n2)cc(-c2cnc(C3(O)CCC(C(N)=O)C(C)(C)C3)s2)c1 (centres unmarked) [Example 119-126]
8 | < 0.1 | Cc1cc(Nc2nccc(C(F)(F)F)n2)cc(-c2cnc(C3(O)CCC(C(N)=O)C(C)(C)C3)s2)c1 (centres unmarked) [Example 119-132]

same assay, conditions: read-out: rhSYK Activity; class symbol; where two forms are listed, one symbol per form

Row | IC50 [µM] | SMILES
9 | < 0.1 | COc1ccsc1C(C)(O)c1ncc(-c2cc(C)cc(Nc3nccc(C(F)(F)F)n3)c2)s1 (centres unmarked) [Example 4A-50]
10 | < 0.1 | CC(=O)c1ccc(C(C)(O)c2ncc(-c3cc(C)cc(Nc4nccc(C(F)(F)F)n4)c3)s2)cc1 (centres unmarked) [Example 4A-51]
11 | 0.1 to 1 | COC(=O)c1ccc(C(O)c2ncc(-c3cc(C)cc(Nc4nccc(C(F)(F)F)n4)c3)s2)cc1 (centres unmarked) [Example 4A-52]
12 | < 0.1 | Cc1cc(Nc2nccc(C(F)(F)F)n2)cc(-c2cnc(C(C)(O)c3cccc(C(=O)O)c3)s2)c1 (centres unmarked) [Example 4A-53]
13 | 0.1 to 1 | Cc1cc(Nc2nccc(C(F)(F)F)n2)cc(-c2cnc(C(C)(O)c3ccc([N+](=O)[O-])cc3)s2)c1 (centres unmarked) [Example 4A-56]
14 | < 0.1 | Cc1cc(Nc2nccc(C(F)(F)F)n2)cc(-c2cnc(C(C)(O)c3ccc(CC(=O)O)cc3)s2)c1 (centres unmarked) [Example 4A-58]
15 | < 0.1 | Cc1cc(Nc2nccc(C(F)(F)F)n2)cc(-c2cnc(C(C)(O)Cc3ccc(C(=O)O)cc3)s2)c1 (centres unmarked) [Example 4A-61]
16 | < 0.1 | COC(OC)C(O)(c1ccccn1)c1ncc(-c2cc(C)cc(Nc3nccc(C(F)(F)F)n3)c2)s1 (centres unmarked) [Example 4A-62]
17 | < 0.1 | Cc1cc(Nc2nccc(C(F)(F)F)n2)cc(-c2cnc(C(C)(O)c3cc(CC(=O)O)cs3)s2)c1 (centres unmarked) [Example 4A-63]
18 | < 0.1 | COc1cc(C(C)(O)c2ncc(-c3cc(C)cc(Nc4nccc(C(F)(F)F)n4)c3)s2)ccc1C(=O)O (centres unmarked) [Example 4A-64]
19 | < 0.1 | Cc1cc(Nc2nccc(C(F)(F)F)n2)cc(-c2cnc(C(C)(O)c3cccc(OCC(=O)O)c3)s2)c1 (centres unmarked) [Example 4A-67]
20 | < 0.1 | Cc1cc(Nc2nccc(C(F)(F)F)n2)cc(-c2cnc(C(C)(O)c3ccc(Br)nc3)s2)c1 (centres unmarked) [Example 4A-70]
21 | < 0.1 | Cc1cc(Nc2nccc(C(F)(F)F)n2)cc(-c2cnc(C(C)(O)c3cncc(Br)c3)s2)c1 (centres unmarked) [Example 4A-71]
22 | 0.1 to 1 | COC(=O)c1ccc(C(C)(O)c2ncc(-c3cc(C)cc(Nc4nccc(C(F)(F)F)n4)c3)s2)cc1OC (centres unmarked) [Example 4A-72]
23 | 0.1 to 1 | Cc1cc(Nc2nccc(C(F)(F)F)n2)cc(-c2cnc(C(C)(O)c3ccc(S(=O)(=O)N(C)C)cc3)s2)c1 (centres unmarked) [Example 4A-73]
24 | < 0.1 | Cc1cc(Nc2nccc(C(F)(F)F)n2)cc(-c2cnc(C(C)(O)c3cnc4sc(C(=O)O)c(C)c4c3)s2)c1 (centres unmarked) [Example 4A-74]
25 | < 0.1 | Cc1cc(Nc2nccc(C(F)(F)F)n2)cc(-c2cnc(C(C)(O)c3cccc(-c4cccc(C(=O)O)c4)c3)s2)c1 (centres unmarked) [Example 4A-75]
26 | < 0.1 | Cc1cc(Nc2nccc(C(F)(F)F)n2)cc(-c2cnc(C(C)(O)c3ccc(N4CC(C(=O)O)CC4=O)cc3)s2)c1 (centres unmarked) [Example 4A-78]
27 | < 0.1 | COc1ccnc(Nc2cc(C)cc(-c3cnc(C(C)(O)c4ccc(C(=O)O)cc4)s3)c2)n1 (centres unmarked) [Example 4A-79]
28 | < 0.1 | Cc1cc(Nc2nccc(C(F)(F)F)n2)cc(-c2cnc(C3(O)CCC3)s2)c1 [Example 4B-1]
29 | < 0.1 | CC1CCCC1(O)c1ncc(-c2cccc(Nc3nccc(C(F)(F)F)n3)c2)s1 (centres unmarked) [Example 4B-2]
30 | 0.1 to 1 | O=C(c1ccoc1)c1ncc(-c2cccc(Nc3nccc(C(F)(F)F)n3)c2)s1 [Example 4B-4]
31 | < 0.1 | O=C(c1ccon1)c1ncc(-c2cccc(Nc3nccc(C(F)(F)F)n3)c2)s1 [Example 4B-5]

Row | IC50 [µM] | SMILES
32 | 0.1 to 1 | N#CCCC1CCCCC1(O)c1ncc(-c2cccc(Nc3nccc(C(F)(F)F)n3)c2)s1 (centres unmarked) [Example 4B-6]
33 | 0.1 to 1 | Cc1cc(Nc2nccc(C(F)(F)F)n2)cc(-c2cnc(C3(O)CCCC4(OCCO4)C3(C)C)s2)c1 (centres unmarked) [Example 4B-28]
34 | < 0.1 | Cc1cc(Nc2nccc(C(F)(F)F)n2)cc(-c2cnc(C3(O)CC4C(Br)CC3C4C(=O)O)s2)c1 (centres unmarked) [Example 4B-53]
35 | < 0.1 | Cc1cc(Nc2nccc(C(F)(F)F)n2)cc(-c2cnc(C3(O)CC4C(Br)CC3C4C(=O)O)s2)c1 (centres unmarked) [Example 4B-54]
36 | < 0.1 | Cc1cc(Nc2nccc(C(F)(F)F)n2)cc(-c2cnc(C(=O)CCC#N)s2)c1 [Example 4B-59]
37 | 0.1 to 1 | Cc1cc(Nc2nccc(C(F)(F)F)n2)cc(-c2cnc(C(=O)CCC(=O)CCO)s2)c1 [Example 4B-62]
38 | < 0.1 | Cc1cc(Nc2nccc(C(F)(F)F)n2)cc(-c2cnc(C3(O)CCC(CN)CC3)s2)c1 (centres unmarked) [Example 4C-4]
39 | < 0.1 | Cc1cc(Nc2nccc(C(F)(F)F)n2)cc(-c2cnc([C@]3(O)CC[C@H](CO)CC3)s2)c1 [Example 4C-6]
40 | < 0.1 | Cc1cc(Nc2nccc(C(F)(F)F)n2)cc(-c2cnc(C3(O)CCC(CO)CC3)s2)c1 (centres unmarked) [Example 4C-7]
41 | < 0.1 | Cc1cc(Nc2nccc(C(F)(F)F)n2)cc(-c2cnc([C@]3(O)CC[C@@H](CO)CC3)s2)c1 [Example 4C-8]
42 | < 0.1 | Cc1cc(Nc2nccc(C(F)(F)F)n2)cc(-c2cnc([C@]3(O)CC[C@@H](CC(=O)O)CC3)s2)c1 [Example 4C-14]
43 | < 0.1 | Cc1cc(Nc2nccc(C(F)(F)F)n2)cc(-c2cnc([C@]3(O)CC[C@H](CC(=O)O)CC3)s2)c1 [Example 4C-15]
44 | 0.1 to 1 | CCOC(=O)C1CCCC(O)(c2ncc(-c3cc(C)cc(Nc4nccc(C(F)(F)F)n4)c3)s2)C1 (centres unmarked) [Example 4C-21]
45 | 0.1 to 1 | COC(=O)C1CCC(O)(c2ncc(-c3cc(C)cc(Nc4nccc(C(F)(F)F)n4)c3)s2)CC1C(C)C (centres unmarked) [Example 4C-25]
46 | < 0.1 | Cc1cc(Nc2nccc(C(F)(F)F)n2)cc(-c2cnc(C3(O)CCC(CC(C)(C)C(=O)O)CC3)s2)c1 (centres unmarked) [Example 4C-26]
47 | < 0.1 | Cc1cc(Nc2nccc(C(F)(F)F)n2)cc(-c2cnc([C@]3(O)CC[C@@H](NC(=O)Cn4ccnc4)CC3)s2)c1 [Example 4C-29]
48 | < 0.1 | Cc1cc(Nc2nccc(C(F)(F)F)n2)cc(-c2cnc(C3(O)CCC(NC(=O)C4CCC(=O)O4)CC3)s2)c1 (centres unmarked) [Example 4C-30]
49 | < 0.1 | Cc1cc(Nc2nccc(C(F)(F)F)n2)cc(-c2cnc(C3(O)CCC(NC(=O)C4CCC(=O)O4)CC3)s2)c1 (centres unmarked) [Example 4C-31]
50 | < 0.1 | Cc1cc(Nc2nccc(C(F)(F)F)n2)cc(-c2cnc([C@]3(O)CC[C@@H](NC(=O)Cc4ccccn4)CC3)s2)c1 [Example 4C-32]
51 | < 0.1 | OC(c1ncc(-c2cccc(Nc3nccc(C(F)(F)F)n3)c2)s1)C(F)(F)F (centres unmarked) [Example 6-2]
52 | < 0.1 | Cc1cc(Nc2nccc(C(F)(F)F)n2)cc(-c2cnc(C(O)(CO)C(F)(F)F)s2)c1 (centres unmarked) [Example 6-7]
53 | < 0.1 | Cc1cc(Nc2nccc(C(F)(F)F)n2)cc(-c2cnc(C(C)(O)c3ccc(C(C)O)cc3)s2)c1 (centres unmarked) [Example 8B-4]

Row | SMILES | IC50 [µM]
54 | CCOC(=O)N1C2CCC1CC(O)(c1ncc(-c3cccc(Nc4nccc(C(F)(F)F)n4)c3)s1)C2 (centres unmarked) [Example 4B-3] | 0.1 to 1
55 | OC1(c2ncc(-c3cccc(Nc4nccc(C(F)(F)F)n4)c3)s2)CC2COCC(C1)N2Cc1ccccc1 (centres unmarked) [Example 4B-9] | 1 to 10
56 | Cc1cc(Nc2nccc(C)n2)cc(-c2cnc(C3(O)C4CC5CC3CN(C5)C4)s2)c1 (centres unmarked) [Example 4B-17] | 0.1 to 1
57 | CCOC(=O)C(O)(c1ncc(-c2cc(C)cc(Nc3nccc(C(F)(F)F)n3)c2)s1)C(F)(F)F (centres unmarked) [Example 6-6] | < 0.1

same assay, conditions: read-out: rhSYK activity; class symbol given

Row | IC50 [µM] | SMILES
58 | < 0.1 | Cc1cc(Nc2nccc(C(F)(F)F)n2)cc(-c2cnc([C@]3(O)CC[C@@H](O)CC3)s2)c1 [Example 8(1), cis-1-[5-(3-methyl-5-{[4-(trifluoromethyl)pyrimidin-2-yl]amino}phenyl)-1,3-thiazol-2-yl]-cyclohexane-1,4-diol]
59 | < 0.1 | Cc1cc(Nc2nccc(C(F)(F)F)n2)cc(-c2cnc([C@]3(O)CC[C@](C)(O)CC3)s2)c1 [Example 9(1), trans-1-methyl-4-[5-(3-methyl-5-{[4-(trifluoromethyl)pyrimidin-2-yl]amino}phenyl)-1,3-thiazol-2-yl]cyclohexane-1,4-diol]
60 | 0.1 to 1 | Cc1cc(Nc2nccc(C(F)(F)F)n2)cc(-c2cnc(C3(O)CCN(C(=O)OC(C)(C)C)CC3)s2)c1 [Example 45, tert-butyl-4-hydroxy-4-[5-(3-methyl-5-{[4-(trifluoromethyl)pyrimidin-2-yl]amino}phenyl)-1,3-thiazol-2-yl]piperidine-1-carboxylate]
61 | < 0.1 | Cc1cc(Nc2nccc(C(F)(F)F)n2)cc(-c2cnc(C3(NS(=O)(=O)C(C)(C)C)COC3)s2)c1 [Example 61, 2-methyl-N-{3-[5-(3-methyl-5-{[4-(trifluoromethyl)pyrimidin-2-yl]amino}phenyl)-1,3-thiazol-2-yl]oxetan-3-yl}propane-2-sulfonamide]
62 | < 0.1 | CC(=O)NC1(c2ncc(-c3cc(C)cc(Nc4nccc(C(F)(F)F)n4)c3)s2)CCC1 [Example 66, N-{1-[5-(3-methyl-5-{[4-(trifluoromethyl)pyrimidin-2-yl]amino}phenyl)-1,3-thiazol-2-yl]cyclobutyl}acetamide]
